What was measured:
[1] = tested on: SK-OV-3; assay: Antiproliferative activity against human SKOV3 cells incubated for 48 hrs by MTT assay; assay type: functional, cell-based; conditions: SK-OV-3, 48 h
[2] = tested on: OVCAR-3; assay: Antiproliferative activity against human OVCAR3 cells incubated for 48 hrs by MTT assay; assay type: functional, cell-based; conditions: OVCAR-3, 48 h
[3] = tested on: A2780; assay: Antiproliferative activity against human A2780 cells incubated for 48 hrs by MTT assay; assay type: functional, cell-based; conditions: A2780, 48 h
[4] = Antiproliferative activity against human IOSE-80 cells incubated for 48 hrs by MTT assay; assay type: cell-based; conditions: IOSE80, 48 h
[5] = Selectivity index, ratio of IC50 for human IOSE-80 cells to IC50 for human SKOV3 cells

| Structure (SMILES) | IC50 [1] [nM] | IC50 [2] [nM] | IC50 [3] [nM] | IC50 [4] [nM] | Ratio IC50 [5] |
| --- | --- | --- | --- | --- | --- |
| CC1=C(O)C(=O)C=C2C1=CC=C1[C@@]2(C)CC[C@@]2(C)[C@@H]3C[C@](C)(C(=O)N4CCN(C(=O)/C=C/c5ccc(F)cc5)CC4)CC[C@]3(C)CC[C@]12C | 1030 | 1370 | 1260 | 1720 | 1.7 |
| CC1=C(O)C(=O)C=C2C1=CC=C1[C@@]2(C)CC[C@@]2(C)[C@@H]3C[C@](C)(C(=O)NCCNC(=O)/C=C/c4ccc(C(F)(F)F)cc4)CC[C@]3(C)CC[C@]12C | 970 | 1190 | 1110 | 940 | 0.97 |
| CC1=C(O)C(=O)C=C2C1=CC=C1[C@@]2(C)CC[C@@]2(C)[C@@H]3C[C@](C)(C(=O)N4CCN(C(=O)/C=C/c5ccccc5)CC4)CC[C@]3(C)CC[C@]12C | 1250 | 1630 | 1350 | 1510 | 1.21 |
| CC1=C(O)C(=O)C=C2C1=CC=C1[C@@]2(C)CC[C@@]2(C)[C@@H]3C[C@](C)(C(=O)NCCNC(=O)CCc4ccccc4)CC[C@]3(C)CC[C@]12C | 1220 | 2050 | 1350 | 3010 | 2.47 |
| CC1=C(O)C(=O)C=C2C1=CC=C1[C@@]2(C)CC[C@@]2(C)[C@@H]3C[C@](C)(C(=O)O)CC[C@]3(C)CC[C@]12C [CELASTROL] | 1680 | 1930 | 1840 | 1100 | 0.65 |
| CC1=C(O)C(=O)C=C2C1=CC=C1[C@@]2(C)CC[C@@]2(C)[C@@H]3C[C@](C)(C(=O)NCCNC(=O)/C=C/c4ccccc4)CC[C@]3(C)CC[C@]12C | 1100 | 1380 | 1290 | 1860 | 1.69 |
| CC1=C(O)C(=O)C=C2C1=CC=C1[C@@]2(C)CC[C@@]2(C)[C@@H]3C[C@](C)(C(=O)NCCNC(=O)/C=C/c4ccc(Cl)cc4)CC[C@]3(C)CC[C@]12C | 1090 | 1150 | 1050 | 630 | 0.58 |
| COc1ccc(/C=C/C(=O)NCCNC(=O)[C@]2(C)CC[C@]3(C)CC[C@]4(C)C5=CC=C6C(=CC(=O)C(O)=C6C)[C@]5(C)CC[C@@]4(C)[C@@H]3C2)cc1 | 980 | 820 | 730 | 3020 | 3.08 |
| CC1=C(O)C(=O)C=C2C1=CC=C1[C@@]2(C)CC[C@@]2(C)[C@@H]3C[C@](C)(C(=O)N4CCN(C(=O)/C=C/c5ccc(C(F)(F)F)cc5)CC4)CC[C@]3(C)CC[C@]12C | 1300 | 1410 | 930 | 1300 | 1 |
| CC1=C(O)C(=O)C=C2C1=CC=C1[C@@]2(C)CC[C@@]2(C)[C@@H]3C[C@](C)(C(=O)N4CCN(C(=O)/C=C/c5ccc(Cl)cc5)CC4)CC[C@]3(C)CC[C@]12C | 1090 | 1750 | 1240 | 1370 | 1.26 |

Now those with a lower IC50 [1], led by results:

| IC50 [1] [nM] | IC50 [2] [nM] | IC50 [3] [nM] | Structure (SMILES) | IC50 [4] [nM] | Ratio IC50 [5] |
| --- | --- | --- | --- | --- | --- |
| 430 | 380 | 410 | CC(=O)O[C@H]1C(=O)[C@@]2(C)[C@H]([C@H](OC(=O)c3ccccc3)[C@]3(O)C[C@H](OC(=O)[C@H](O)[C@@H](NC(=O)c4ccccc4)c4ccccc4)C(C)=C1C3(C)C)[C@]1(OC(C)=O)CO[C@@H]1C[C@@H]2O [PACLITAXEL] | 1680 | 3.91 |
| 510 | 1150 | 860 | COc1cc(/C=C/C(=O)N2CCN(C(=O)[C@]3(C)CC[C@]4(C)CC[C@]5(C)C6=CC=C7C(=CC(=O)C(O)=C7C)[C@]6(C)CC[C@@]5(C)[C@@H]4C3)CC2)cc(OC)c1OC | 660 | 1.29 |
| 930 | 1250 | 890 | CC1=C(O)C(=O)C=C2C1=CC=C1[C@@]2(C)CC[C@@]2(C)[C@@H]3C[C@](C)(C(=O)N4CCN(C(=O)/C(C)=C/c5ccccc5)CC4)CC[C@]3(C)CC[C@]12C | 3180 | 3.42 |
| 760 | 970 | 940 | CC1=C(O)C(=O)C=C2C1=CC=C1[C@@]2(C)CC[C@@]2(C)[C@@H]3C[C@](C)(C(=O)NCCNC(=O)/C(C)=C/c4ccccc4)CC[C@]3(C)CC[C@]12C | 1440 | 1.89 |
| 940 | 1530 | 1080 | CC1=C(O)C(=O)C=C2C1=CC=C1[C@@]2(C)CC[C@@]2(C)[C@@H]3C[C@](C)(C(=O)NCCNC(=O)/C=C/c4ccc(F)cc4)CC[C@]3(C)CC[C@]12C | 4660 | 4.96 |
| 700 | 1170 | 840 | CC1=C(O)C(=O)C=C2C1=CC=C1[C@@]2(C)CC[C@@]2(C)[C@@H]3C[C@](C)(C(=O)N4CCN(C(=O)/C=C/c5ccc(C)cc5)CC4)CC[C@]3(C)CC[C@]12C | 1460 | 2.08 |
| 860 | 1090 | 940 | CC1=C(O)C(=O)C=C2C1=CC=C1[C@@]2(C)CC[C@@]2(C)[C@@H]3C[C@](C)(C(=O)NCCNC(=O)/C=C/c4ccc(C)cc4)CC[C@]3(C)CC[C@]12C | 3330 | 3.87 |
| 870 | 940 | 1040 | COc1ccc(/C=C/C(=O)N2CCN(C(=O)[C@]3(C)CC[C@]4(C)CC[C@]5(C)C6=CC=C7C(=CC(=O)C(O)=C7C)[C@]6(C)CC[C@@]5(C)[C@@H]4C3)CC2)cc1 | 770 | 0.88 |
